# Article PMC7265429, “Characterization of a new small-molecule inhibitor of HDAC6 in glioblastoma” (Cell Death & Disease, 2020)
# System: GNS166 cells
# Experiment: Microarray whole-transcriptome gene expression analysis
# Assay type: cell-based, human
# Conditions: 5 µM SAHA vs DMSO
# Method: Whole-transcriptome analysis was performed from 300 ng of RNA using HuGene-2_0-st-v1 expression array (Affymetrix), which covers 48,226 transcripts. Raw data were first checked for quality purposes through the Affymetrix® Expression Console™ Software v1.4.1 and TAC software v4.0. Then, data were normalized using the Robust Multi-array Average (RMA) and analyzed by Limma tool. Probesets with FDR-corrected p-values smaller than 0.05 were selected. Functional enrichment on Gene Ontology (GO) biological processes was performed on a smaller subset of the differentially expressed genes (corrected p-value < 0.001) by means of Broad Institute GSEA. […] The data that support this study have been deposited in NCBI´s Gene Expression Omnibus and are accessible through GEO series accession number GSE143887.
compound,measurement,setting,value
"O=C(CCCCCCC(=O)Nc1ccccc1)NO [SAHA, Suberoylanilide hydroxamic acid]",logFC C4orf32,transcript TC0400008424.hg.1,1.313
same,logFC USP53,transcript TC0400008557.hg.1,1.38
same,logFC SPRY1,transcript TC0400008628.hg.1,1.671
same,logFC PCDH10,transcript TC0400008725.hg.1,3.614
same,logFC LRAT,transcript TC0400009068.hg.1,2.43
same,logFC GUCY1B3,transcript TC0400009088.hg.1,2.131
same,logFC GRIA2,transcript TC0400009110.hg.1,2.789
same,logFC WDR17,transcript TC0400009376.hg.1,2.897
same,logFC TLR10,transcript TC0400010449.hg.1,2.282
same,logFC TEC,transcript TC0400010618.hg.1,1.822
same,logFC SPINK2,transcript TC0400010780.hg.1,1.664
same,logFC PAQR3,transcript TC0400011130.hg.1,1.64
same,logFC HPSE,transcript TC0400011203.hg.1,1.993
same,logFC ABCG2,transcript TC0400011279.hg.1,2.81
same,logFC NDNF,transcript TC0400011732.hg.1,1.962
same,logFC CBR4,transcript TC0400012375.hg.1,2.0355
same,logFC CCDC110,transcript TC0400012640.hg.1,2.964
same,logFC STIM2,transcript TC0400012781.hg.1,2.698
same,logFC STIM2,transcript TC0400012782.hg.1,1.4133
same,logFC TMEM144,transcript TC0400012854.hg.1,1.56
same,logFC MFAP3L,transcript TC0400012992.hg.1,1.287
same,logFC ROPN1L,transcript TC0500006744.hg.1,1.559
same,logFC CDH6,transcript TC0500007044.hg.1,1.462
same,logFC HEXB,transcript TC0500007792.hg.1,1.236
same,logFC ADGRV1,transcript TC0500008055.hg.1,1.802
same,logFC C5orf30,transcript TC0500008233.hg.1,1.583
same,logFC ACTBL2,transcript TC0500010822.hg.1,3.506
same,logFC SGTB,transcript TC0500010932.hg.1,1.8638
same,logFC MEF2C,transcript TC0500011418.hg.1,3.2962
same,logFC PCSK1,transcript TC0500011513.hg.1,2.7195
same,logFC ST8SIA4,transcript TC0500011579.hg.1,2.463
same,logFC NREP,transcript TC0500011705.hg.1,1.704
same,logFC SEMA6A,transcript TC0500011775.hg.1,1.39
same,logFC MARCH3,transcript TC0500011935.hg.1,1.4429
same,logFC BASP1,transcript TC0500013155.hg.1,2.0101
same,logFC BMP6,transcript TC0600006873.hg.1,2.494
same,logFC CD83,transcript TC0600007012.hg.1,1.54
same,logFC SLC25A27,transcript TC0600008166.hg.1,2.967
same,logFC TMEM14A,transcript TC0600008262.hg.1,1.194
same,logFC OGFRL1,transcript TC0600008486.hg.1,1.1708
same,logFC TPD52L1,transcript TC0600009353.hg.1,1.7761
same,logFC KIAA0319,transcript TC0600011065.hg.1,1.327
same,logFC GSTA4,transcript TC0600012059.hg.1,1.152
same,logFC ELOVL4,transcript TC0600012379.hg.1,1.597
same,logFC GPR63,transcript TC0600012625.hg.1,1.5628
same,logFC CTGF,transcript TC0600013186.hg.1,1.2152
same,logFC SGK1,transcript TC0600013231.hg.1,2.01
same,logFC CITED2,transcript TC0600013361.hg.1,1.453
same,logFC MICA,transcript TC0600014101.hg.1,1.308
same,logFC TBC1D7,transcript TC0600014241.hg.1,1.745
same,logFC GCLC,transcript TC0600014300.hg.1,1.594
same,logFC SCIN,transcript TC0700006735.hg.1,1.966
same,logFC TSPAN13,transcript TC0700006783.hg.1,2.267
same,logFC RUNDC3B,transcript TC0700008261.hg.1,2.108
same,logFC PEG10,transcript TC0700008367.hg.1,1.87
same,logFC SDHAF3,transcript TC0700008430.hg.1,2.085
same,logFC CPED1,transcript TC0700008928.hg.1,1.813
same,logFC FKBP14,transcript TC0700010621.hg.1,1.44
same,logFC IGFBP3,transcript TC0700010965.hg.1,3.673
same,logFC PCLO,transcript TC0700011655.hg.1,1.736
same,logFC TFPI2,transcript TC0700011809.hg.1,1.387
same,logFC DOCK4,transcript TC0700012276.hg.1,2.262
same,logFC KCNH2,transcript TC0700013050.hg.1,1.762
same,logFC DOCK5,transcript TC0800007057.hg.1,2.096
same,logFC CHCHD7,transcript TC0800007697.hg.1,1.373
same,logFC GDAP1,transcript TC0800007985.hg.1,1.791
same,logFC STMN2,transcript TC0800008044.hg.1,3.942
same,logFC CA3,transcript TC0800008124.hg.1,3.677
same,logFC CA2,transcript TC0800008126.hg.1,1.801
same,logFC STC1,transcript TC0800009891.hg.1,3.859
same,logFC TEX15,transcript TC0800010045.hg.1,3.073
same,logFC ZMAT4,transcript TC0800010224.hg.1,2.513
same,logFC ENPP2,transcript TC0800011620.hg.1,1.943
same,logFC FBXO16,transcript TC0800012396.hg.1,1.919
same,logFC SLC1A1,transcript TC0900006522.hg.1,1.427
same,logFC CD274,transcript TC0900006559.hg.1,1.67
same,logFC ZNF483,transcript TC0900008425.hg.1,1.1693
same,logFC OLFM1,transcript TC0900009145.hg.1,2.218
same,logFC MLLT3,transcript TC0900009673.hg.1,1.64
same,logFC NMRK1,transcript TC0900010445.hg.1,1.539
same,logFC DIRAS2,transcript TC0900010737.hg.1,1.619
same,logFC CTSV,transcript TC0900010933.hg.1,2.165
same,logFC MEGF9,transcript TC0900011379.hg.1,1.37
same,logFC PHYHIPL,transcript TC1000007714.hg.1,2.12
same,logFC SFR1,transcript TC1000008798.hg.1,1.8477
same,logFC VIM-AS1,transcript TC1000009920.hg.1,1.211
same,logFC DNAJC12,transcript TC1000010827.hg.1,2.378
same,logFC CPEB3,transcript TC1000011420.hg.1,1.535
same,logFC MPP7,transcript TC1000012536.hg.1,1.855
